Laboratory results taken from US20150190404A1, “TREATING SEIZURES USING ICE INHIBITORS” (Vertex Pharmaceuticals Incorporated, priority 2004, published 2015).
Values joined by “and” are separate entries in the source; they are usually repeats but may differ in a detail not shown here. Identical values can stand only once. “Also recorded” adds a separate entry of the source.

Experiments:
[1] = test system: kainic acid-induced seizures; test: Kainic acid-induced EEG seizures, compound given intracerebroventricularly (Example 1); assay type: in vivo, male adult Sprague-Dawley rats; conditions: individual rats, 25 μg/4 μl icv
Experimental: An experimental model of seizures in male adult Sprague-Dawley rats was induced by unilateral microinjection of kainic acid (40 ng in 0.5 μl) in the dorsal hippocampus of freely-moving rats using chronically-implanted cannulae and electrodes. Briefly, animals were deeply anesthetized using Equithesin (1% […] and 4% chloral hydrate; 3 ml/kg, i.p.). Bipolar nichrome wire insulated electrodes (60 μm) were implanted bilaterally into the dentate gyrus of the dorsal hippocampus (septal pole), and a guide cannula (22 gauge) was unilaterally positioned on top of the dura and glued to one of the depth electrodes for the intrahippocampal injection of kainic acid. The coordinates from bregma for implantation of the hippocampal electrodes were (in mm: nose bar -2.5, AP -3.5, L ±2.4 and 3 below dura mater). An additional guide cannula was unilaterally positioned on top of the dura mater for intracerebroventricular injection of compounds (in mm, nose bar -2.5; AP -1; L +1.5). A ground lead was positioned over the nasal sinus and two screw electrodes were placed bilaterally over the parietal cortex. The electrodes were connected to a multipin socket (March Electronics, NY) and, together with the injection cannula, were secured to the skull by acrylic dental cement.

[2] = test system: kainic acid-induced seizures; test: Kainic acid-induced EEG seizures, compound 1 given intraperitoneally (Example 2); assay type: in vivo, rats
Experimental: An experimental model of seizures in rats was induced by unilateral microinjection of kainic acid (40 ng in 0.5 μL) in the dorsal hippocampus of freely-moving rats using chronically-implanted cannulae. […] EEG seizures were recorded using chronically-implanted hippocampal electrodes. […] See, Example 4, where a higher dose of compound 2 produced statistically significant effects.

IL-1β = test: Western blot of IL-1β in hippocampal homogenates after kainate seizures; assay type: in vivo, rats; conditions: 25 μg/4 μL icv 45 and 10 min before kainic acid 40 ng, 90 min after seizures
Excerpt: See Example 1 and Example 6.

seizures = test: Rodent seizure model, general statements on anti-convulsant activity; conditions: in vivo
Excerpt: The examples provided herein involve an rodent seizure model that is recognized as a good model of human epilepsy and convulsions disorders.

rheumatoid arthritis = conditions: Pavelka et al. 2002, 285 patient PHII trial; cited from earlier work
[3] = test system: kainic acid-induced seizures; test: Effect of ibuprofen on kainic acid-induced EEG seizures (Example 5); assay type: in vivo, Rats; conditions: for Status Epilepticus (time in status epilepticus) / Onset / No. of Seizures / Time in Seizures: 50 mg/kg
Experimental: EEG seizures were induced in adult male Sprague-Dawley rats by intrahippocampal injection of 40 ng kainic acid (KA) using a chronically-implanted cannula. EEG seizures were recorded using chronically-implanted hippocampal electrodes. Ictal and interictal epileptic activity was quantified quantified by EEG analysis based on the following parameters: 1) the time to onset of the first ictal episode, 2) the number of ictal episodes during the 3 hours of recording, and 3) the time spent in ictal activity reckoned by adding together the duration of each ictal event. Compound 2 or its vehicle were injected intraperitoneally for 3 consecutive days (50-200 mg/kg). The 4th day, rats received compound 2, 45 and 10 min before the intrahippocampal injection of 40 ng in 0.5 μl kainic acid.
The effect of ibuprofen on seizures was also examined using the methods described in Example 4. Rats received ibuprofen (50 mg/kg, i.p.) 60 min. before unilateral intrahippocampal injection of […] in 0.5 μl kainic acid. Controls (vehicle) received saline *p<0.05 vs. vehicle by Student's t-test. Seizures were analyzed and quantified by EEG. Status epilepticus represents continuous seizure activity lasting more than 30 min. consecutively.

[4] = individual rats, 30 mg/kg intraperitoneally, 45 and 10 min before 40 ng kainic acid, 30 mg/kg
[5] = individual rats, i.p. 60 min. before kainic acid

CCO[C@@H]1OC(=O)C[C@@H]1NC(=O)[C@@H]1CCCN2C(=O)CC[C@H](NC(=O)c3nccc4ccccc34)C(=O)N12 [Compound 1]
Time in ictal activity ([1]; 45 and 10 min before 40 ng kainic acid): 36.0 min (2×) and 30.0 min and 42.0 min (2×) and 34.0 min and 41.0 min
ONSET (time to onset of the first ictal episode) ([1]; 45 and 10 min before 40 ng kainic acid in left hippocampus): 15.0 min and 20.0 min and 14.0 min (2×) and 18.0 min and 13.6 min and 9.0 min and 12.0 min
No. of ictal episodes ([1]; 45 and 10 min before 40 ng kainic acid, 3 hours of recording): 28 and 29 and 30 (3×) and 37 and 31 and 33
reduction of the total time spent in ictal activity ([2]; 30 mg/kg intraperitoneally, vs vehicle, did not reach statistical significance): −30%
No. of ictal episodes ([2]; Mean ± SE, 30 mg/kg intraperitoneally, vehicle 20.8 ± 2.5): 20.5 ± 2.3
Time in ictal activity ([2]; Mean ± SE, 30 mg/kg intraperitoneally, vehicle 36.6 ± 6.9): 25.6 ± 2.8 min
ONSET (time to onset of the first ictal episode) [2, 4]: 10.5 min and 12 min and 14 min and 9 min (2×) and 23 min and 13 min and 11 min
Time in ictal activity [2, 4]: 9 min and 32 min and 27 min and 20 min and 34 min and 25 min and 30 min and 28 min
No. of ictal episodes ([2]; individual rats, 30 mg/kg intraperitoneally, 45 and 10 min before 40 ng kainic acid, 3 hours of recording, 30 mg/kg): 8 and 23 (2×) and 29 and 17 and 25 (2×) and 16
seizure inhibition / anti-convulsant activity ([2]; intraperitoneal (peripheral) route): inhibit seizures; also recorded: have anti-convulsant activity when administered peripherally
mature active 17 kD IL-1β in hippocampus (IL-1β): blocked the seizure-induced production; also recorded: reduced the formation mature active 17 kD IL-1β
anti-convulsant activity in the rodent seizure model (seizures): as effective as high doses of either phenytoin or carbamazepine
anti-inflammatory activity in rheumatoid arthritis patients (rheumatoid arthritis): anti-inflammatory activity

CC(C)Cc1ccc(C(C)C(=O)O)cc1 (stereo not shown) [Ibuprofen]
Status Epilepticus (time in status epilepticus) ([3]; Mean ± SE of (5) rats, i.p., vehicle —): 74.4 ± 2.6
Status Epilepticus (time in status epilepticus) ([3]; Mean ± SE of (5) rats, i.p., vehicle —, listed as ibuprofen): increased the time in status epilepticus
Onset ([3]; Mean ± SE, i.p., vehicle 13.2 ± 2.1): 13.0 ± 1.7 min
No. of Seizures ([3]; Mean ± SE, i.p., vehicle 16.6 ± 1.0): 11.7 ± 1.0
Time in Seizures ([3]; Mean ± SE, i.p., vehicle 21.1 ± 1.1): 10.8 ± 0.6 min
Onset ([3]; individual rats, i.p. 60 min. before intrahippocampal 40 μg in 0.5 μl kainic acid): 14.4 min and 7.9 min and 11.0 min and 12.3 min and 13.3 min and 21.4 min and 10.0 min
No. of Seizures [3, 5]: 13 (2×) and 10 (2×) and 12 and 16 and 8
Time in Seizures [3, 5]: 13.0 min and 8.4 min and 11.0 min and 12.5 min and 11.2 min and 9.8 min and 9.4 min
Status Epilepticus (time in status epilepticus) ([3]; individual rats, i.p., continuous seizure activity lasting more than 30 min., all vehicle rats —): 75 and 66.6 and 80 (2×) and 70
seizure activity compared to vehicle ([3]; intraperitoneal route): increased the seizure activity compared to vehicle

NC(=O)N1c2ccccc2C=Cc2ccccc21 [carbamazepine]
anti-convulsant activity in the rodent seizure model (seizures): exhibit anti-convulsant activity

O=C1NC(=O)C(c2ccccc2)(c2ccccc2)N1 [phenytoin]
anti-convulsant activity in the rodent seizure model (seizures): exhibit anti-convulsant activity
